Assay results reported in PubChem BioAssay (NCI).
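Five concentrations, 48 hours, 96-well plates. GI50 is the concentration that inhibits growth by half. TGI marks complete inhibition of growth.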

Experiments:
Test in all cases: growth of human tumour cells (NCI), 48 h
A498 renal = tested on: A498 renal
A549 NSCLC = tested on: A549 NSCLC
ACHN renal = tested on: ACHN renal
BT-549 breast = tested on: BT-549 breast
CAKI-1 renal = tested on: CAKI-1 renal
COLO 205 colon = tested on: COLO 205 colon
DU-145 prostate = tested on: DU-145 prostate
EKVX NSCLC = tested on: EKVX NSCLC
HCC-2998 colon = tested on: HCC-2998 colon
HCT-116 colon = tested on: HCT-116 colon
HCT-15 colon = tested on: HCT-15 colon
HL-60(TB) leukemia = tested on: HL-60(TB) leukemia
HOP-62 NSCLC = tested on: HOP-62 NSCLC
HOP-92 NSCLC = tested on: HOP-92 NSCLC
HS 578T breast = tested on: HS 578T breast
HT29 colon = tested on: HT29 colon
IGROV1 ovarian = tested on: IGROV1 ovarian
K-562 leukemia = tested on: K-562 leukemia
KM12 colon = tested on: KM12 colon
LOX IMVI melanoma = tested on: LOX IMVI melanoma
M14 melanoma = tested on: M14 melanoma
MALME-3M melanoma = tested on: MALME-3M melanoma
MCF7 breast = tested on: MCF7 breast
MDA-MB-231 breast = tested on: MDA-MB-231 breast
MDA-MB-435 = tested on: MDA-MB-435
MOLT-4 leukemia = tested on: MOLT-4 leukemia
NCI-H226 lung = tested on: NCI-H226 lung
NCI-H23 lung = tested on: NCI-H23 lung
NCI-H460 lung = tested on: NCI-H460 lung
NCI-H522 lung = tested on: NCI-H522 lung
NCI/ADR-RES ovarian = tested on: NCI/ADR-RES ovarian
OVCAR-3 ovarian = tested on: OVCAR-3 ovarian
OVCAR-4 ovarian = tested on: OVCAR-4 ovarian
OVCAR-5 ovarian = tested on: OVCAR-5 ovarian
OVCAR-8 ovarian = tested on: OVCAR-8 ovarian
PC-3 prostate = tested on: PC-3 prostate
RPMI-8226 leukemia = tested on: RPMI-8226 leukemia
RXF 393 renal = tested on: RXF 393 renal
SF-268 CNS = tested on: SF-268 CNS
SF-295 CNS = tested on: SF-295 CNS
SF-539 CNS = tested on: SF-539 CNS
SK-MEL-28 melanoma = tested on: SK-MEL-28 melanoma
SK-MEL-5 melanoma = tested on: SK-MEL-5 melanoma
SK-OV-3 ovarian = tested on: SK-OV-3 ovarian
SN12C renal = tested on: SN12C renal
SNB-19 CNS = tested on: SNB-19 CNS
SNB-75 CNS = tested on: SNB-75 CNS
SR leukemia = tested on: SR leukemia
SW-620 colon = tested on: SW-620 colon
T-47D breast = tested on: T-47D breast
TK-10 renal = tested on: TK-10 renal
U251 CNS = tested on: U251 CNS
UACC-257 melanoma = tested on: UACC-257 melanoma
UACC-62 melanoma = tested on: UACC-62 melanoma
UO-31 renal = tested on: UO-31 renal

O=C(N/N=C/C=C/c1ccc([N+](=O)[O-])o1)c1cc2ccccc2cc1O
GI50 (A498 renal): 2.48 µM | TGI (A498 renal): 8.95 µM | GI50 (A549 NSCLC): 2.75 µM | TGI (A549 NSCLC): 12.2 µM | GI50 (ACHN renal): 1.26 µM | TGI (ACHN renal): 9.39 µM | GI50 (BT-549 breast): 1.3 µM | TGI (BT-549 breast): 3.02 µM | GI50 (CAKI-1 renal): 0.933 µM | TGI (CAKI-1 renal): 5.02 µM | GI50 (COLO 205 colon): 1.84 µM | TGI (COLO 205 colon): 3.35 µM | GI50 (DU-145 prostate): 2.26 µM | TGI (DU-145 prostate): 8.67 µM | GI50 (EKVX NSCLC): 2.64 µM | TGI (EKVX NSCLC): 9.48 µM | GI50 (HCC-2998 colon): 1.31 µM | TGI (HCC-2998 colon): 2.59 µM | GI50 (HCT-116 colon): 0.326 µM | TGI (HCT-116 colon): 1.4 µM | GI50 (HCT-15 colon): 0.465 µM | TGI (HCT-15 colon): 4.23 µM | GI50 (HL-60(TB) leukemia): 1.43 µM | TGI (HL-60(TB) leukemia): 11.3 µM | GI50 (HOP-62 NSCLC): 3.27 µM | TGI (HOP-62 NSCLC): 10.6 µM | GI50 (HOP-92 NSCLC): 2.08 µM | TGI (HOP-92 NSCLC): 5.52 µM | GI50 (HS 578T breast): 3.6 µM | TGI (HS 578T breast): > 100 µM | GI50 (HT29 colon): 2.15 µM | TGI (HT29 colon): 7.05 µM | GI50 (IGROV1 ovarian): 0.981 µM | TGI (IGROV1 ovarian): 3.73 µM | GI50 (K-562 leukemia): 0.632 µM | TGI (K-562 leukemia): 9.53 µM | GI50 (KM12 colon): 1.42 µM | TGI (KM12 colon): 2.85 µM | GI50 (LOX IMVI melanoma): 0.356 µM | TGI (LOX IMVI melanoma): 1.58 µM | GI50 (M14 melanoma): 0.758 µM | TGI (M14 melanoma): 2.15 µM | GI50 (MALME-3M melanoma): 1.5 µM | TGI (MALME-3M melanoma): 3.4 µM | GI50 (MCF7 breast): 0.711 µM | TGI (MCF7 breast): 3.54 µM | GI50 (MDA-MB-231 breast): 2.17 µM | TGI (MDA-MB-231 breast): 8.65 µM | GI50 (MDA-MB-435): 0.506 µM | TGI (MDA-MB-435): 2.38 µM | GI50 (MOLT-4 leukemia): 1.18 µM | TGI (MOLT-4 leukemia): 7.3 µM | GI50 (NCI-H226 lung): 1.64 µM | TGI (NCI-H226 lung): 4.78 µM | GI50 (NCI-H23 lung): 1.02 µM | TGI (NCI-H23 lung): 2.75 µM | GI50 (NCI-H460 lung): 1.64 µM | TGI (NCI-H460 lung): 6.9 µM | GI50 (NCI-H522 lung): 0.486 µM | TGI (NCI-H522 lung): 2.72 µM | GI50 (NCI/ADR-RES ovarian): 1.36 µM | TGI (NCI/ADR-RES ovarian): 7.27 µM | GI50 (OVCAR-3 ovarian): 0.562 µM | TGI (OVCAR-3 ovarian): 5.83 µM | GI50 (OVCAR-4 ovarian): 1.06 µM | TGI (OVCAR-4 ovarian): 2.77 µM | GI50 (OVCAR-5 ovarian): 3.35 µM | TGI (OVCAR-5 ovarian): 10.7 µM | GI50 (OVCAR-8 ovarian): 1.45 µM | TGI (OVCAR-8 ovarian): 21.7 µM | GI50 (PC-3 prostate): 2.02 µM | TGI (PC-3 prostate): 9.97 µM | GI50 (RPMI-8226 leukemia): 1.53 µM | TGI (RPMI-8226 leukemia): 6.83 µM | GI50 (RXF 393 renal): 0.412 µM | TGI (RXF 393 renal): 1.77 µM | GI50 (SF-268 CNS): 1.43 µM | TGI (SF-268 CNS): 7.43 µM | GI50 (SF-295 CNS): 3.37 µM | TGI (SF-295 CNS): 21.2 µM | GI50 (SF-539 CNS): 2.44 µM | TGI (SF-539 CNS): 10.2 µM | GI50 (SK-MEL-28 melanoma): 0.697 µM | TGI (SK-MEL-28 melanoma): 2.4 µM | GI50 (SK-MEL-5 melanoma): 0.349 µM | TGI (SK-MEL-5 melanoma): 1.48 µM | GI50 (SK-OV-3 ovarian): 3.36 µM | TGI (SK-OV-3 ovarian): 38.5 µM | GI50 (SN12C renal): 2.02 µM | TGI (SN12C renal): 18.9 µM | GI50 (SNB-19 CNS): 3.2 µM | TGI (SNB-19 CNS): 24.4 µM | GI50 (SNB-75 CNS): 1.97 µM | TGI (SNB-75 CNS): 6.12 µM | GI50 (SR leukemia): 0.308 µM | TGI (SR leukemia): 7.69 µM | GI50 (SW-620 colon): 1.05 µM | TGI (SW-620 colon): 3.05 µM | GI50 (T-47D breast): 1.44 µM | TGI (T-47D breast): 3.68 µM | GI50 (TK-10 renal): 2.44 µM | TGI (TK-10 renal): 8.13 µM | GI50 (U251 CNS): 1.42 µM | TGI (U251 CNS): 4.16 µM | GI50 (UACC-257 melanoma): 1.38 µM | TGI (UACC-257 melanoma): 4.21 µM | GI50 (UACC-62 melanoma): 1.03 µM | TGI (UACC-62 melanoma): 2.77 µM | GI50 (UO-31 renal): 1.05 µM | TGI (UO-31 renal): 4.06 µM
